The values below are quoted from earlier work in patent US6753013B1, “Pharmaceutical composition” (Leo Pharmaceutical Products, Ltd. A/S, priority 1999, dated 2004).

The test system of the data set is psoriatic skin. The note with it: simultaneous application of a steroid, such as betamethasone, onto psoriatic skin.

As to `C=C1/C(=C\C=C2/CCC[C@]3(C)[C@@H]([C@H](C)/C=C/[C@@H](O)C4CC4)CC[C@@H]23)C[C@@H](O)C[C@@H]1O` [calcipotriol], the “Skin irritative side effects” value is reported as “alleviated”.
